The record followed here is ChEMBL document CHEMBL1151720, “Citreamicins with potent gram-positive activity” (J Nat Prod, 2008).

≈ marks a conversion by molar mass, not a printed value.

Series [1] has as its system Staphylococcus aureus. The series is described as follows: Antimicrobial activity against methicillin-susceptible Staphylococcus aureus 29213. It is filed as functional.
Series [2] has as its system Staphylococcus aureus. In words: Antimicrobial activity against vancomycin-intermediate Staphylococcus aureus 2012. It is filed as functional.
Series [3] concerns Staphylococcus aureus. The series is described as follows: Antimicrobial activity against linezolid-resistant methicillin-resistant Staphylococcus aureus 1725. Type of series: functional.
Series [4] relates to Streptococcus pneumoniae. In words: Antimicrobial activity against penicillin-susceptible Streptococcus pneumoniae 975. It is filed as functional.
Series [5] concerns Streptococcus pneumoniae. The series is described as follows: Antimicrobial activity against penicillin-resistant Streptococcus pneumoniae 940. Type of series: functional.
Series [6] concerns Streptococcus pneumoniae. The series is described as follows: Antimicrobial activity against quinolone-resistant Streptococcus pneumoniae 376. Type of series: functional.
Series [7] has as its system Haemophilus influenzae. In words: Antimicrobial activity against ampicillin-resistant Haemophilus influenzae 1742. It is filed as functional.
Series [8] has as its system Haemophilus parainfluenzae. The series is described as follows: Antimicrobial activity against Haemophilus parainfluenzae 2319. Type of series: functional.
Series [9] deals with Escherichia coli. The series is described as follows: Antimicrobial activity against Escherichia coli 25922 QC. It is filed as functional. Particulars: ATCC25922.
Series [10] has as its system Escherichia coli. In words: Antimicrobial activity against extended spectrum beta-lactamase producing Escherichia coli 2269. Type of series: functional.
Series [11] relates to Klebsiella pneumoniae. In words: Antimicrobial activity against Klebsiella pneumoniae 2239. Type of series: functional.
Series [12] concerns Klebsiella pneumoniae. The series is described as follows: Antimicrobial activity against ampC beta-lactamase producing multidrug-resistant Klebsiella pneumoniae 2262. It is filed as functional.
Series [13] relates to Moraxella catarrhalis. The series is described as follows: Antimicrobial activity against Moraxella catarrhalis 557. It is filed as functional.
In series [14] the test system is Serratia marcescens. In words: Antimicrobial activity against Serratia marcescens 1635. Type of series: functional.
Series [15] relates to Pseudomonas aeruginosa. The series is described as follows: Antimicrobial activity against Pseudomonas aeruginosa 1473. It is filed as functional.
For series [16], the system named is Staphylococcus aureus. In words: Antimicrobial activity against methicillin-resistant Staphylococcus aureus 1137. It is filed as functional.
In series [17] the test system is Staphylococcus aureus. The series is described as follows: Antimicrobial activity against methicillin-resistant Staphylococcus aureus 43300. Type of series: functional.
Series [18] deals with Staphylococcus aureus. The series is described as follows: Antimicrobial activity against methicillin-susceptible Staphylococcus aureus 6538. Type of series: functional.
Series [19] has as its system Enterococcus faecium. The series is described as follows: Antimicrobial activity against vancomycin-resistant Enterococcus faecium 700221 clinical isolate. Type of series: functional.
The subject of series [20] is Escherichia coli. In words: Antimicrobial activity against Escherichia coli 1411. Type of series: functional.
Series [21] is described as follows: Cytotoxicity against human Hep G2 cells assessed as cell viability measured by change in ATP level after 48 hrs. It is filed as functional. Conditions: HepG2, 48 h.
Series [22] can be described thus: Cytotoxicity against NHDF cells assessed as cell viability measured by change in ATP level after 48 hrs. It is filed as cell-based. Conditions: human.

On to `C[C@@H](O)[C@H]1C(=O)N2C(C(=O)O)=C(S[C@@H]3CN[C@H](C(=O)N(C)C)C3)[C@H](C)[C@H]12` [MEROPENEM], for which the MIC is 0.25 mg/L (≈ 0.652 µM) in series [1]; greater than 4 mg/L in series [2]; 0.25 mg/L (≈ 0.652 µM) in [3]; 0.015 mg/L (≈ 0.0391 µM) in series [4]; 1 mg/L (≈ 2.61 µM) in series [5]; 0.015 mg/L (≈ 0.0391 µM) in [6]. In addition, the MIC is 0.06 mg/L (≈ 0.156 µM) in series [7]; 0.03 mg/L (≈ 0.0782 µM) in [8]; 0.03 mg/L (≈ 0.0782 µM) in series [9]; 0.03 mg/L (≈ 0.0782 µM) in series [10]; 0.06 mg/L (≈ 0.156 µM) in [11]; greater than 64 mg/L in series [12]. In addition, the MIC was no more than 0.004 mg/L in series [13], 0.06 mg/L (≈ 0.156 µM) in [14] and 4 mg/L (≈ 10.4 µM) in series [15].

Consider `CCCCCCCCCC(=O)N[C@@H](Cc1c[nH]c2ccccc12)C(=O)N[C@H](CC(N)=O)C(=O)N[C@@H](CC(=O)O)C(=O)N[C@@H]1C(=O)NCC(=O)N[C@@H](CCCN)C(=O)N[C@@H](CC(=O)O)C(=O)N[C@H](C)C(=O)N[C@@H](CC(=O)O)C(=O)NCC(=O)N[C@H](CO)C(=O)N[C@@H]([C@H](C)CC(=O)O)C(=O)N[C@@H](CC(=O)c2ccccc2N)C(=O)O[C@@H]1C`, for which the MIC in series [1] is 1 mg/L (≈ 0.617 µM); in series [16] it was 1 mg/L (≈ 0.617 µM); in [2], 8 mg/L (≈ 4.94 µM); in series [3], 1 mg/L (≈ 0.617 µM); in [4], 0.25 mg/L (≈ 0.154 µM); in series [5], 0.25 mg/L (≈ 0.154 µM). For the same compound, the MIC in series [6] was 0.25 mg/L (≈ 0.154 µM); in series [7] it was greater than 64 mg/L; in series [8], greater than 64 mg/L; in [9], greater than 64 mg/L; in series [10], greater than 64 mg/L; in series [11] it was greater than 64 mg/L. Besides, the figures for the MIC in series [13], in series [14] and in series [15] were 16 mg/L (≈ 9.87 µM), greater than 64 mg/L and greater than 64 mg/L, respectively.

`COc1ccc2oc3c(O)c4c(c(O)c3c(=O)c2c1O)-c1c(cc2c(c1O)C(=O)N1C(C)(C2)OC(=O)C1(C)CO)CC4` (stereo not drawn) [CITREAMICIN EPSILON]: the MIC worked out at 0.13 mg/L (≈ 0.226 µM) in series [17]; 0.13 mg/L (≈ 0.226 µM) in series [18]; 0.12 mg/L (≈ 0.209 µM) in [1]; 0.25 mg/L (≈ 0.434 µM) in series [16]; 0.25 mg/L (≈ 0.434 µM) in series [2]; 0.12 mg/L (≈ 0.209 µM) in series [3]. Further, the MIC in series [19] was 0.5 mg/L (≈ 0.869 µM); in series [4], 0.25 mg/L (≈ 0.434 µM); in series [5], 0.12 mg/L (≈ 0.209 µM); in series [6] it was 0.25 mg/L (≈ 0.434 µM); in [7], greater than 32 mg/L; in series [8] it was greater than 32 mg/L. The MIC in series [20] was greater than 64 mg/L; in series [9], greater than 32 mg/L; in series [10], greater than 32 mg/L; in series [11] it was greater than 32 mg/L; in series [12], greater than 32 mg/L; in series [13] it was 0.5 mg/L (≈ 0.869 µM). Also, the MIC in series [14] and in series [15] was greater than 32 mg/L each time. Besides, the CC90 in [21] amounted to 1 mg/L (≈ 1.74 µM). In series [22], the CC90 at 48 h came out at 0.1 mg/L (≈ 0.174 µM).

For the compound `CC(=O)NC[C@H]1CN(c2ccc(N3CCOCC3)c(F)c2)C(=O)O1` [LINEZOLID], the MIC in series [17] was 1 mg/L (≈ 2.96 µM); in series [18] it was 0.5 mg/L (≈ 1.48 µM); in [2], 1 mg/L (≈ 2.96 µM); in [5] it was 0.25 mg/L (≈ 0.741 µM); in [7], 8 mg/L (≈ 23.7 µM); in series [8], 16 mg/L (≈ 47.4 µM). Also, the MIC in [9] is greater than 64 mg/L; in series [10] it was greater than 64 mg/L; in series [11], greater than 64 mg/L; in [13], 4 mg/L (≈ 11.9 µM); in series [14], greater than 64 mg/L; in series [15], greater than 64 mg/L.

`COc1ccc2oc3c(c(=O)c2c1O)C(=O)c1c(ccc2cc4c(c(O)c12)C(=O)N1C(C)(C4)OC(=O)C1(C)CO)C3=O` (stereo not drawn) [CITREAMICIN DELTA]: the MIC in series [17] was 0.5 mg/L (≈ 0.875 µM); in [18], no more than 0.5 mg/L; in [1], 1 mg/L (≈ 1.75 µM); in [16], 2 mg/L (≈ 3.5 µM); in [2] it was 2 mg/L (≈ 3.5 µM); in [3] it was 1 mg/L (≈ 1.75 µM). The MIC in [19] was no more than 0.25 mg/L; in [4], no more than 0.06 mg/L; in series [7] it was 1 mg/L (≈ 1.75 µM); in series [8], 1 mg/L (≈ 1.75 µM); in [20], greater than 128 mg/L; in series [9] it was greater than 64 mg/L. For the same compound, the MIC in [10] was greater than 64 mg/L; in series [11] it was greater than 64 mg/L; in series [13], 4 mg/L (≈ 7 µM); in [14], greater than 64 mg/L; in series [15], greater than 64 mg/L. In addition, in [21], the CC90 was 2.4 mg/L (≈ 4.2 µM). Also, the CC90 at 48 h in [22] worked out at 0.3 mg/L (≈ 0.525 µM).
